Measured values from patent publication US9526785B2, “Pharmaceuticals for oral delivery” (Enteris BioPharma, Inc., priority 2013, dated 2016).

Assay: Tigecycline plasma PK after IV bolus in anesthetized rats
Assay type: in vivo
Conditions: female, Sprague-Dawley, rat
Description: Naïve, female Sprague-Dawley Rats (Taconic Farms, Germantown, N.Y.) housed in groups of three were maintained in a climate-controlled room on a 12:12 h light-dark cycle with food and water available ad libitum. Animals weighed approximately 250 g at the time of testing. Rats were fasted overnight (with water available), prior to dosing. Tigecycline stock was prepared fresh on the day of each study in water and diluted in the indicated formulations.
Intravenous (IV) doses were administered as a bolus injection into the left carotid […] at a dose volume of 1.6 mL/kg. Intraduodenal doses were administered as bolus injections into the duodenum at a dose volume of 1.2 mL/kg.
Female rats were maintained in groups of 3 per polycarbonate (or equivalent) shoebox cage with fresh wood chip bedding at 20-22° C. under a 12 hour on/off light:dark cycle. The rats were fasted overnight prior to surgery and anesthetized by intramuscular injection of 0.3 mL fresh ketamine (67 mg/mL)/xylazine (42 mg/mL) in 0.9% saline into the hind flank. After the rats went limp they were injected intraperitoneally (IP) with 0.1 mL ketamine/xylazine. The anesthetic state was maintained by IP injection of ketamine/xylazine on an as needed basis. Animal weights were determined post-anesthesia induction.
An indwelling catheter for blood sampling was inserted into the right carotid artery by exposing the trachea with Mayo scissors, clamping the bottom of the […] and tying off the top with surgical suture. The area between was nicked with small sharp scissors and Intramedic polyethylene tubing was inserted into the nicked area. The artery with the tubing was sealed with suture to prevent leakage. A 23-gauge Intramedic Luer Stub Adapter was inserted into the cannula and attached to a 3 way valve which was connected to a 3 cc syringe filled with 0.9% normal saline and a 1 cc syringe filled with 5 U/mL sodium heparin for blood sampling.
Blood samples were collected in tubes containing 20 μL 180 mM EDTA. The tubes were maintained on ice and then centrifuged at approximately 3000 rpm at 4° C. for 5 minutes. Plasma was harvested immediately after centrifugation of the samples and stored at −20° C. pending analysis.
Minocycline (VWR international) was used as an internal standard. Sample processing/clean-up of plasma samples was carried out offline by protein precipitation with acidified acetonitrile.
The HPLC system consisted of Shimadzu SIL-HTc HPLC system equipped with dual Shimadzu LC-10ADvp isopumps, a Shimadzu CTO-10ASvp column temperature controller and a Shimadzu SPD-10Avp variable wavelength detector. […] Mobile phase A consisted of 23 mM phosphate buffer pH 2.5 with 6 mM 1-octanesulfonic acid, while mobile phase B consisting of pure acetonitrile. […] The mobile phase flow rate was 1.2 mL/min. Detection was performed using the SPD-10Avp variable wavelength detector set at 350 nm, with a sensitivity of 0.001 aufs.
The samples were then centrifuged under refrigeration at 13 k rpm for 30 minutes. The supernatant was taken and the liquid was removed to dryness in a turbovap. The samples were then reconstituted in 55 μL 0.1M phosphate buffer, pH 3.8. Samples were maintained at 10° C. while on the autoinjector during sequence. The injection volume was 50 μL. The unknown concentration in rat plasma samples was determined by interpolation of the peak area ratios of analyte:internal standard versus the ratio of their nominal concentrations into the regression line obtained from calibration standards spiked in pooled rat plasma. No regression weighting was used for the calculations. […] The calibration curve covered the range of 0.05 μg/mL to 5.0 μg/mL.
Due to analytical issues observed in the analyses of earlier study samples, the analytical method was changed slightly for later samples. Mobile phase A was changed to 23 mM phosphate buffer pH 2.5 with 4 mM 1-octanesulfonic acid, while mobile phase B was changed to 90% acetonitrile, 10% water, with 2 mM 1-octanesulfonic acid. […]

[1] = IV bolus 0.64 mg/kg, PBS (RA851)

Structure (SMILES): CN(C)c1cc(NC(=O)CNC(C)(C)C)c(O)c2c1C[C@H]1C[C@H]3[C@H](N(C)C)C(O)=C(C(N)=O)C(=O)[C@@]3(O)C(O)=C1C2=O [Tigecycline]
- AUC(0-t) [1]: 970 ng·h/mL
- Cmax [1]: 1790 ng/mL
- Tmax [1]: 5 min
- concentration at 0 min [1]: 0 ng/mL
- concentration at 5 min [1]: 1790 ng/mL
- concentration at 10 min [1]: 888 ng/mL
- concentration at 20 min [1]: 447 ng/mL
- concentration at 30 min [1]: 376 ng/mL
- concentration at 60 min [1]: 290 ng/mL
- concentration at 120 min [1]: 216 ng/mL
- concentration at 240 min (IV bolus 0.64 mg/kg, PBS (RA851), 240 min): 116 ng/mL
- AUC(0-t) (IV bolus 12 mg/kg, PBS (RA853)): 13200 ng·h/mL
- Cmax (IV bolus 12 mg/kg, PBS (RA853)): 50700 ng/mL
- Tmax (IV bolus 12 mg/kg, PBS (RA853)): 5 min
- concentration at 0 min (IV bolus 12 mg/kg, PBS (RA853)): 0 ng/mL
- concentration at 5 min (IV bolus 12 mg/kg, PBS (RA853)): 50700 ng/mL
- concentration at 10 min (IV bolus 12 mg/kg, PBS (RA853)): 26200 ng/mL
- concentration at 20 min (IV bolus 12 mg/kg, PBS (RA853)): 9310 ng/mL
- concentration at 30 min (IV bolus 12 mg/kg, PBS (RA853)): 5760 ng/mL
- concentration at 60 min (IV bolus 12 mg/kg, PBS (RA853)): 2610 ng/mL
- concentration at 120 min (IV bolus 12 mg/kg, PBS (RA853)): 1870 ng/mL
- AUC(0-t) (RA869, IV, 0.6 mg/kg): 132 ng·h/mL
- Cmax (RA869, IV, 0.6 mg/kg): 369 ng/mL
- Tmax (RA869, IV, 0.6 mg/kg): 7.5 min
